Measured values from publication PMC7571124 (Molecules, 2020).
Where two headings read alike, the source gives them in different places. Residues, ends and D or L forms follow the SMILES beside them.

Assays:
[1] = system: avian influenza A A/CHK/MX/1994 H5N2 virus; test: microbe, parasite or virus in culture; type: cell-based; conditions: for IC50: read-out: IC50 of viral replication inhibition
[2] = biological target: neuraminidase of A/CHK/MX/1994 H5N2 (Influenza A virus, UniProt Q0A2F2); type: biochemical, Influenza A virus A/Chicken/Mexico/31381-7/1994 (H5N2)
[3] = biological target: T1, neuraminidase of A/PR/8/34 H1N1 (Influenza A virus, UniProt P03468); test: biochemical; type: biochemical, Influenza A virus A/Puerto Rico/8/34 (H1N1)
T1 construct: Samples of cell supernatant infected with whole virus were used as source of enzymes; host or cells: MDCK cells infected with the virus; clarified culture supernatant

in vitro = conditions: dog
MDCK cells = conditions: dog

Row | Compound | inhibition of viral replication (lytic plaques) ([1]; at 1 mM) | inhibition mechanism [2] | IC50 [3] [mM] | Ki [3] [mM] | inhibition mechanism [3] | further results
1 | 3-(propylaminosulfonyl)-4-chlorobenzoic acid [STL] | completely inhibited |  |  |  |  | inhibition of viral replication (lytic plaques) ([1]; at 100 μM): losing this effect; IC50 [2]: 24.8 ± 1.3 mM
2 | CSCCC(NC(=O)C(Cc1ccccc1)NC(C)=O)C(=O)O (stereo not drawn) [AAMOL, N-acetylphenylalanylmethionine] (Ac-Phe-Met-OH; configuration not given here) |  | competitive | 57 ± 1.1 | 15.3 | competitive | inhibition of viral replication (lytic plaques) ([1]; at 1 μM): no inhibition effect was observed; CC50 (in vitro): 0.016 ± 0.0015 mM
3 | O=C1O[C@H]([C@@H](O)CO)C(O)=C1O [CIV, ascorbic acid] |  | noncompetitive | 32 ± 1.5 | 26.4 | noncompetitive | inhibition of viral replication (lytic plaques) ([1]; at 1 μM): no inhibition effect was observed; CC50 (in vitro): 0.0003 mM; CC50 (MDCK cells): 0.00055 ± 0.0011 mM
4 | Cc1ccc(C)c(NC(=O)CC(C(=O)O)N2CCNCC2)c1 (stereo not shown) [FMOL, propanoic 3-[(2,5-dimethylphenyl)carbamoyl]-2-(piperazin-1-yl) acid] | affected the size and number of plaques |  |  |  |  | inhibition of viral replication (lytic plaques) ([1]; at 100 μM): affected the size and number of plaques
5 | CC(=O)N[C@H]1[C@H]([C@H](O)[C@H](O)CO)O[C@@](Oc2ccc3c(C)cc(=O)oc3c2)(C(=O)O)C[C@@H]1O [MUNANA, 2′-O-(4-methylumbelliferyl)-α-dN-acetylneuraminic acid] |  |  |  |  |  | Km [2]: 106 µM; Vmax [2]: 5.2 µmol/min; Km [3]: 142 µM; Vmax [3]: 2.77 µmol/min
6 | CCCN(CCC)S(=O)(=O)c1ccc(C(=O)O)cc1 [ORP, 4-(dipropylsulfamoyl) benzoic acid] | only lowered the number of plaques | competitive | 23 ± 1.2 | 10.5 | competitive | IC50 ([1]; Influenza A virus, H5N2, MDCK, in Canis lupus familiaris): 0.157 mM
7 | CC(=O)N[C@H]1[C@H]([C@H](O)[C@H](O)CO)OC(C(=O)O)=C[C@@H]1N=C(N)N [Zanamivir, zanamivir] |  | competitive |  |  |  | lytic plaque formation [1]: not detected; IC50 [1]: 0.000741 mM
